These results are taken from US20250042884A1, “3-ARYLOXYL-3-FIVE-MEMBERED HETEROARYL PROPYLAMINE COMPOUND AND USE THEREOF” (Shanghai Leado Pharmatech Co. Ltd., priority 2018, published 2025).

Test [1] has as its target T1, TRPA1 (Mus musculus (Mouse), UniProt Q8BLA8). The test can be described thus: IonWorks Barracuda (IWB) automated patch clamp detection of TRPA1 inhibitory activity. Format: cell-based. As to conditions: for IC50: HEK293 cells stably expressing TRPA1. The protocol: The inhibitory activity of some compounds in the examples of the present invention (as shown in Table 1) on transient receptor potential channel protein TRPA1 was tested in this example. The compound of formula A (WO2010075353) was used as a positive control compound: […]
Ion Works Barracuda (IWB) automated patch clamp detection was used as test method: HEK293 cells stably expressing TRPA1 were placed in DMEM medium containing 15 μg/mL Blasticidin S HCl, 200 μg/mL Hygromycin B and 10% FBS in the T175 culture flask, and cultured in 37° C., 5% CO2 incubator. When the cell density reached about 80%, the culture medium was removed, rinsed with phosphate buffered saline (PBS) without calcium and magnesium. 3 mL of Trypsin was added to digest for 2 min, 7 mL of culture medium was added to terminate the digestion. The cells were collected to 15 mL centrifuge tube and centrifuged at 800 rpm for 3 min. After the supernatant was removed, the cells were added to appropriate volume of extracellular fluid for re-suspending, and the cell density was controlled at 2-3×10^6/mL for IWB experiment. Extracellular fluid formulation (in mM): 140 NaCl, 5 KCl, 1 MgCl2, 10 HEPES, 0.5 EGTA, 10 Glucose (pH 7.4); intracellular fluid formulation (in mM): 140 CsCl, 10 HEPES, 5 EGTA, 0.1 CaCl2, 1 MgCl2 (pH 7.2). 28 mg/mL of amphotericin B was freshly prepared with DMSO on the day of experiment, and then final concentration of 0.1 mg/mL was prepared with intracellular fluid.
Population patch clamp (PPC) plate was used in IWB experiment. The entire detection process was automatically carried out by the instrument. Extracellular fluid was added into 384 wells of PPC plate, and 6 µL of the intracellular fluid was added into plenum (under the PPC plate), 6 µL of cell fluid was added for sealing test, and finally the intracellular fluid in plenum was replaced with amphotericin B-containing intracellular fluid to establish a whole-cell recording mode after perforating sealed cells. The sampling frequency for recording TPRA1 current was 10 kHz, the cells were clamped at 0 mV, the voltage stimulation command (channel protocol) was a ramp voltage from −100 mV to +100 mV for 300 ms. This voltage stimulation was applied every 10 s, mTRPA1current was induced by 300 µM AITC.
Data recording and current amplitude measurement export were carried out by IWB software (version 2.5.3, Molecular Devices Corporation, Union City, CA). No statistics was recorded for holes with sealing impedance lower than 20 MQΩ. The original current data was corrected by software for leakage reduction. TRPA1 current amplitude was measured at +100 mV. […] If IC50 value of HC030031 exceeded 3 times the average IC50 value previously obtained on each plate, it would be re-tested. The dose-effect curve of compounds and IC50 were fitted and calculated by GraphPad Prism 5.02 (GraphPad Software, San Diego, CA).
Some compounds in the examples of the present invention were detected by lonWorks Barracuda (IWB) automated patch clamp detection method for IC50 inhibitory activity.
Background: The patch-clamp technique gives a direct electrical read-out from membranes.

A further test has as its system SD rats. The test is described as follows: Rat SNL model, mechanical allodynia test (nerve pain). Format: in vivo. As to conditions: 1 h after administration, 10 mg/kg oral, hydrochloride salt; control group 3.967 ± 0.775.
Test [2] concerns the target T1, TRPA1. The test is described as follows: Manual patch clamp test of TRPA1 inhibitory activity. Format: cell-based. To be noted: FIG. 2. Here is the method:
The TRPA1 inhibitory activity of compound I-1 was evaluated by manual patch clamp test method.

T1 sequence (Q8BLA8 whole entry): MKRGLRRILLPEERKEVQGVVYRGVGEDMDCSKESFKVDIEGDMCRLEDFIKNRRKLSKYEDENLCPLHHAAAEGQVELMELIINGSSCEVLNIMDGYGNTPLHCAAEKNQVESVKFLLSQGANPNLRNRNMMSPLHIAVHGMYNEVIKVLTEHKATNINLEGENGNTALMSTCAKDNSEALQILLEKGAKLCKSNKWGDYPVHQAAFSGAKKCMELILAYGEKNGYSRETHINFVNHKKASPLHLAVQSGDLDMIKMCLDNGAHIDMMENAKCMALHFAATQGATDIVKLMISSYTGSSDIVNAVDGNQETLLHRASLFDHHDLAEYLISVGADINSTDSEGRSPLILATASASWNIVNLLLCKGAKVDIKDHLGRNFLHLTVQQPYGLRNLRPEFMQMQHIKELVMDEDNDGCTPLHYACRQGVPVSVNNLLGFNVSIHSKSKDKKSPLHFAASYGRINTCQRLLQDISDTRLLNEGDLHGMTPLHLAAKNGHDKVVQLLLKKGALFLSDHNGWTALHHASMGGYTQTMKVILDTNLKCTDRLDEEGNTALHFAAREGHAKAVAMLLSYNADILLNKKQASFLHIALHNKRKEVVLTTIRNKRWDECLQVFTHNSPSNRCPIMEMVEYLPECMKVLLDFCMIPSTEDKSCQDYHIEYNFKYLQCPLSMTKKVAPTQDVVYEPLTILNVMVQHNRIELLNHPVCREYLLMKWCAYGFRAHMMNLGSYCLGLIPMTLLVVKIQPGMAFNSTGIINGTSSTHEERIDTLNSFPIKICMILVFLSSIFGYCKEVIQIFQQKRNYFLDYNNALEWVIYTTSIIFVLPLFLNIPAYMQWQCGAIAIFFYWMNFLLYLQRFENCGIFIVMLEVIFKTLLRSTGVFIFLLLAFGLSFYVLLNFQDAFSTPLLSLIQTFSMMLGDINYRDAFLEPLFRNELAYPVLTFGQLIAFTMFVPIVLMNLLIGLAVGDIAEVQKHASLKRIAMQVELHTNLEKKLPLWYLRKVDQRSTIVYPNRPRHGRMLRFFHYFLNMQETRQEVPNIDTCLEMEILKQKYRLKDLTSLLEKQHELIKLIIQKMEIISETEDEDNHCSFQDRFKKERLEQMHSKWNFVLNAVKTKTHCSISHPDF
Experimental for SD rats: Male SPF grade SD rats, weighed 150 g-180 g, were selected. Aseptic operation during surgery was performed. The animals were anesthetized with sodium pentobarbital (50 mg/kg, intraperitoneal injection). The surgical area of animal waist was shaved and the skin was disinfected three times with iodophor and 70% ethanol. After the skin was dried, the operation was started. Surgical knife was used to make a longitudinal incision at the back of the sacrum of the animal waist to expose the left paraspinal muscles, and stretcher was used to separate muscle tissue to expose the spine. The left spinal nerves L5 and L6 were separated and ligated with a 6-0 silk thread, and the wound was sutured. After the operation, the animals were placed on electrothermal pad, and 5 mL of saline was injected subcutaneously to prevent dehydration. After the animals were fully awakened and could move around freely, the animals were put back in the cage.
After the operation, the animals were adapted in the experimental environment for 15min/day for 3 days.
The animals were weighed to calculate the dose. […] After administration, mechanical allodynia test was performed. The rat was individually placed in a plexiglass box with a grid on the bottom of the box to ensure that the rat claw could be tested. The rats were allowed to adapt the environment for 15 min before test. After the adaptation was completed, the test fiber was used to test the center of the left hind claw of the rat. The test fiber comprises 8 test strengths: 3.61 (0.4 g), 3.84 (0.6 g), 4.08 (1 g), 4.31 (2 g), 4.56 (4 g), 4.74 (6 g), 4.93 (8 g), and 5.18 (15 g). […] During the test, rapid withdrawal of animal claw was recorded as pain response. When the test fiber was removed from animal skin, the withdrawal of animal claw was also recorded as pain response. If animal moved, the pain response was not recorded, and the test was repeated. […]
Mechanical allodynia was expressed as withdrawal threshold (PWT) in rat behavioral test, which was calculated with the following formula: […]

Broadly, the IC50 is the midpoint of a concentration-inhibition curve. In the case of `CNCC[C@@H](Oc1cccc2ccoc12)c1cccs1` [Compound I-1, (R)-3-(benzofuran-7-yloxy)-N-methyl-3-(thiophen-2-yl)propyl-1-amine], the IC50 at TRPA1 [1] (FIG. 1, read-out: IC50 on TRPA1, automated patch clamp) was 2.06 µM; at TRPA1 [1] (current induced by AITC, read-out: IC50 (μM), inhibitory activity on TRPA1 in the automated patch clamp detection test), 1 to 5 µM; on TRPA1 [2], 420 nM. In addition, the “activity ratio, IC50 of compound C2/IC50 of compound I-1” value on TRPA1 [1] (TRPA1, automated patch clamp) is on record as “about 6.3”. Besides, in the test on SD rats, the “PWT(g), claw withdrawal threshold” value is listed as 7.869 ± 2.846 g.
